This is an account of results in patent publication US20050159427A1, “N-acylsulfonamide apoptosis promoters” (priority 2003, published 2005).

Structures are written as SMILES.

This assay concerns A549 human non-small cell lung carcinoma cells. The assay is described as follows: Paclitaxel combination on A549 cells. As to conditions: stated after the paclitaxel combination results on A549 and PC-3 cells. Format: cell-based.

Turning to `CN(C)CC[C@@H](CSc1ccccc1)Nc1ccc(S(=O)(=O)NC(=O)c2ccc(N3CCN(Cc4ccccc4-c4ccc(Cl)cc4)CC3)cc2)cc1[N+](=O)[O-]` [enantiomer of EXAMPLE 2, N-(4-(4-((4′-chloro(1,1′-biphenyl)-2-yl)methyl)piperazin-1-yl)benzoyl)-4-(((1S)-3-(dimethylamino)-1-((phenylsulfanyl)methyl)propyl)amino)-3-nitrobenzenesulfonamide], the “efficacy relative to EXAMPLE 2” value is listed as “less efficacious”.
